{"source": "patent US20130136704A1", "about": "“P-MENTHANE-3,8-DIOL ISOMER MIXTURE, COMPOSITION COMPRISING THE SAME, AND PRODUCTS COMPRISING THE MIXTURE OR COMPOSITION” (TAKASAGO INTERNATIONAL CORPORATION, priority 2011, published 2013)", "origin": "cited, not measured here", "conditions": "Patent Literature 2", "data": [{"compound": "CC1CCC(C(C)(C)O)C(O)C1", "note": "(stereo not shown) [p-menthane-3,8-diol]", "values": [{"measurement": "concentration of p-menthane-3,8-diol in solution at which it is in a supersaturation state and crystals precipitate", "value": "≥ 60", "unit": "%"}]}]}
